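1) Cells in 96-well plates. 2) Compound, 48 h, 5 concentrations. 3) Linear interpolation between surrounding doses. 4) Unreached endpoint = highest concentration. Here, GI50 denotes the concentration required for 50% inhibition of growth.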 The source made the active and inactive calls. Cut-off read from the data, not from the text of the source: active = GI50 up to about 1.1 µM and inactive = higher.
Legend:
Assay in all cases: growth of human tumour cells (NCI), 48 h
KM-20L2 = test system: KM-20L2
LXFL 529 = test system: LXFL 529
DMS-114 = test system: DMS-114
DMS-273 = test system: DMS-273
RXF 631 = test system: RXF 631
DLD-1 = test system: DLD-1
M19-MEL = test system: M19-MEL
SNB-78 = test system: SNB-78
HOP-18 = test system: HOP-18

Measured: GI50

CNS(=O)(=O)NN(C)S(=O)(=O)c1ccc(Br)cc1
inactive: KM-20L2 > 100 µM | LXFL 529 > 100 µM | DMS-114 > 100 µM | DMS-273 > 100 µM | RXF 631 > 100 µM | DLD-1 > 10 µM | M19-MEL > 100 µM

Cc1c(/C=N/NC(=O)c2cc(Br)cc(Br)c2O)c(=O)n(-c2ccccc2)n1C
inactive: KM-20L2 58.3 µM | LXFL 529 75.9 µM | DMS-114 38.5 µM | SNB-78 > 100 µM | DMS-273 5.25 µM | DLD-1 67.1 µM | M19-MEL > 100 µM

COC1=CC(=O)C2C(C1=O)[C@@H]1c3ccccc3OC(C)(C)[C@H]21 (some centres not stated)
inactive: KM-20L2 27.1 µM | LXFL 529 18.7 µM | DMS-114 20.7 µM | SNB-78 18.8 µM | DMS-273 22.9 µM | DLD-1 19.2 µM | M19-MEL 20.2 µM

O=C(CC1C(=O)Nc2ccccc2S1(=O)=O)Nc1cccc(Cl)c1 (configuration not stated)
inactive: KM-20L2 21.1 µM | LXFL 529 17.2 µM | DMS-114 16.1 µM | SNB-78 59.7 µM | DMS-273 14.5 µM | RXF 631 19.9 µM | DLD-1 17.5 µM | M19-MEL 19.1 µM

NC(CCc1ncc(-c2ccccc2)s1)C(=O)O (configuration not stated)
inactive: LXFL 529 > 100 µM | HOP-18 > 100 µM | DMS-114 > 100 µM | SNB-78 > 100 µM | DMS-273 > 100 µM | RXF 631 > 100 µM | DLD-1 > 100 µM

CCC1NCC(=O)c2c1[nH]c1ccccc21 (configuration not stated)
inactive: KM-20L2 > 100 µM | LXFL 529 > 100 µM | HOP-18 > 100 µM | DMS-114 > 100 µM | SNB-78 > 100 µM | DMS-273 > 100 µM | DLD-1 > 100 µM | M19-MEL > 100 µM

O=C1OC2C(O)COC2(O)C1(O)C(C[N+](=O)[O-])c1ccc(Cl)cc1 (configuration not stated)
inactive: KM-20L2 2.51 µM | LXFL 529 1.95 µM | HOP-18 9.02 µM | DMS-114 2.76 µM | SNB-78 13.8 µM | DMS-273 3.3 µM | DLD-1 1.81 µM | M19-MEL 2.5 µM

CCOC(=O)C1=C(O)C(=O)c2cc(C)ccc2C1=O
inactive: KM-20L2 > 100 µM | HOP-18 45.5 µM | DMS-114 > 100 µM | SNB-78 > 100 µM | DMS-273 > 100 µM | DLD-1 > 100 µM | M19-MEL 16.6 µM

Cc1c(C(=O)CSc2nc3cc([N+](=O)[O-])ccc3[nH]2)c(=O)n(-c2ccccc2)n1C
inactive: LXFL 529 > 100 µM | DMS-114 > 100 µM | DMS-273 > 100 µM | DLD-1 > 100 µM | M19-MEL > 100 µM

Cc1c(N2CCOCC2)nc2ccc(Cl)cc2c1-c1ccccc1
inactive: LXFL 529 61.2 µM | DMS-114 70.1 µM | SNB-78 > 100 µM | DMS-273 59.8 µM | M19-MEL 85.7 µM

CCOP(=O)(OCC)/C(C#N)=C\c1ccc(OC(C)=O)cc1
inactive: KM-20L2 > 100 µM | LXFL 529 > 100 µM | HOP-18 > 100 µM | DMS-114 > 100 µM | SNB-78 > 100 µM | DLD-1 > 100 µM | M19-MEL > 100 µM

Cc1cc2c(=O)c3ccc(Cl)cc3[nH]c2c(C(N)=O)c1C
inactive: KM-20L2 > 100 µM | LXFL 529 > 100 µM | DMS-114 > 100 µM | SNB-78 > 100 µM | DMS-273 > 100 µM | RXF 631 > 100 µM | DLD-1 > 100 µM | M19-MEL > 100 µM

COC(=O)/C(C#N)=C(\N)C(Cl)(Cl)Cl
inactive: KM-20L2 29.7 µM | LXFL 529 2.7 µM | DMS-114 3.73 µM | SNB-78 6.18 µM | DMS-273 3.45 µM | RXF 631 2.78 µM | DLD-1 1.17 µM | M19-MEL 2.43 µM

CCCN1CN(C(C(=O)N[C@@H]2C(=O)N3C2SC(C)(C)C3C(=O)O)c2ccccc2)CSC1=S (some centres not stated)
inactive: KM-20L2 > 100 µM | LXFL 529 70.5 µM | HOP-18 > 100 µM | DMS-114 54 µM | SNB-78 > 100 µM | DMS-273 48.8 µM | DLD-1 84.1 µM | M19-MEL > 100 µM

O=C1CC2(C[C@@H]3CCCCCCCCC[C@@H](C3)C2)N1 (some centres not stated)
inactive: KM-20L2 15.6 µM | LXFL 529 15.7 µM | HOP-18 10.5 µM | DMS-114 16.7 µM | SNB-78 23.4 µM | DMS-273 12.3 µM | M19-MEL 15.2 µM

COc1cc2c(cc1OC)C(=O)C(C1=C(SC(=N)N)C(=O)c3cc(OC)c(OC)cc31)C2 (configuration not stated)
inactive: KM-20L2 > 100 µM | LXFL 529 > 100 µM | DMS-114 > 100 µM | SNB-78 > 100 µM | DMS-273 > 100 µM | DLD-1 > 100 µM | M19-MEL > 100 µM

NC(CCSC(F)F)C(=O)O (configuration not stated)
inactive: KM-20L2 > 100 µM | LXFL 529 > 100 µM | DMS-114 65.3 µM | SNB-78 > 100 µM | DMS-273 > 100 µM | DLD-1 > 100 µM | M19-MEL > 100 µM

CCOc1ccc(/C=C/C(=O)c2sc(NNC(C)=O)nc2C)cc1
inactive: KM-20L2 > 100 µM | HOP-18 > 100 µM | DMS-114 > 100 µM | SNB-78 > 100 µM | DMS-273 > 100 µM | DLD-1 > 100 µM | M19-MEL > 100 µM

COc1nc2nccc-2c2occn12
inactive: KM-20L2 > 100 µM | LXFL 529 > 100 µM | HOP-18 > 100 µM | DMS-114 > 100 µM | SNB-78 > 100 µM | DMS-273 > 100 µM | RXF 631 > 100 µM | DLD-1 > 100 µM | M19-MEL > 100 µM

CCOC(=O)N[C@@H]1C(CC(=O)OC)O[C@H]2OC(C)(C)O[C@H]21 (some centres not stated)
inactive: KM-20L2 > 100 µM | LXFL 529 > 100 µM | HOP-18 > 100 µM | DMS-114 > 100 µM | SNB-78 > 100 µM | DMS-273 > 100 µM | RXF 631 > 100 µM | DLD-1 > 100 µM | M19-MEL > 100 µM

COc1ccc2cc3[n+](cc2c1O)CCc1cc2c(cc1-3)OCO2 [BERBERRUBINE CHLORIDE]
inactive: KM-20L2 > 100 µM | LXFL 529 > 10 µM | HOP-18 > 100 µM | SNB-78 > 100 µM | DLD-1 > 100 µM | M19-MEL > 100 µM

Reference: ChEMBL document CHEMBL1201862, “PubChem BioAssay data set” (2004)
